Measured values as given in patent publication US20260035387A1 (BIOGEN MA INC., priority 2022, published 2026).

System: mutant Huntington (HTT) protein
Test: HTT Mutant HTRF iPSC assay (mHTT protein lowering)
Type: cell-based
Conditions: human iPSC derived from a HTT patient with a poly-Q49 mutation

| SMILES | IC50 [nM] |
| --- | --- |
| COc1c(NC(=O)c2nc3ccc(N4CCC(N5CCC5)C4)nc3s2)cn2cc(C)nc2c1F (racemic) [Compound 126, 5-(3-(azetidin-1-yl)pyrrolidin-1-yl)-N-(8-fluoro-7-methoxy-2-methylimidazo[1,2-a]pyridin-6-yl)thiazolo[5,4-b]pyridine-2-carboxamide] | < 100 |
| Cc1cn2cc(NC(=O)c3cc4ncc(C5CCC(N)CC5)nc4s3)cc(F)c2n1 (racemic) [Compound 141, 3-(4-aminocyclohexyl)-N-(8-fluoro-2-methylimidazo[1,2-a]pyridin-6-yl)thieno[2,3-b]pyrazine-6-carboxamide] | 1000 to 9000 |
| Cc1cn2cc(NC(=O)c3cc4ncc(C5=CCCC(N)C5)nc4s3)cc(F)c2n1 (racemic) [Compound 143, 3-(5-aminocyclohex-1-en-1-yl)-N-(8-fluoro-2-methylimidazo[1,2-a]pyridin-6-yl)thieno[2,3-b]pyrazine-6-carboxamide] | 100 to 1000 |
| Cc1cn2cc(NC(=O)c3cc4ncc(C5=CC(N)CCC5)nc4s3)cc(F)c2n1 (racemic) [Compound 145, 3-(3-aminocyclohex-1-en-1-yl)-N-(8-fluoro-2-methylimidazo[1,2-a]pyridin-6-yl)thieno[2,3-b]pyrazine-6-carboxamide] | 100 to 1000 |
| Cc1cn2cc(NC(=O)c3cc4ccc(OC5C[C@@H](C)N[C@@H](C)C5)nc4s3)cc(F)c2n1 (mixture of isomers) [Compound 156] | < 100 |
| Cc1cn2cc(NC(=O)c3cc4ccc(OC5CCNC(C)(C)C5)nc4s3)cc(F)c2n1 (racemic) [Compound 158, 6-((2,2-dimethylpiperidin-4-yl)oxy)-N-(8-fluoro-2-methylimidazo[1,2-a]pyridin-6-yl)thieno[2,3-b]pyridine-2-carboxamide] | < 100 |
| Cc1cn2cc(NC(=O)c3cc4ccc(OC5CCN(C)C5)nc4s3)cc(F)c2n1 (racemic) [Compound 159, N-(8-fluoro-2-methylimidazo[1,2-a]pyridin-6-yl)-6-((1-methylpyrrolidin-3-yl)oxy)thieno[2,3-b]pyridine-2-carboxamide] | < 100 |
| CCN1CCC(Oc2ccc3cc(C(=O)Nc4cc(F)c5nc(C)cn5c4)sc3n2)C1 (racemic) [Compound 161, 6-((1-ethylpyrrolidin-3-yl)oxy)-N-(8-fluoro-2-methylimidazo[1,2-a]pyridin-6-yl)thieno[2,3-b]pyridine-2-carboxamide] | < 100 |
| COc1c(NC(=O)c2cc3ccc(N4CCC(N5CCC5)C4)nc3s2)cc2cn(C)nc2c1F (racemic) [Compound 180, rac-(R)-6-(3-(azetidin-1-yl)pyrrolidin-1-yl)-N-(7-fluoro-6-methoxy-2-methyl-2H-indazol-5-yl)thieno[2,3-b]pyridine-2-carboxamide] | < 100 |
| Cc1cn2cc(NC(=O)c3cc4ccc(N5CC[C@@H]6CN(C)C[C@@H]65)nc4s3)nc(C)c2n1 (racemic) [Compound 194, N-(2,8-dimethylimidazo[1,2-a]pyrazin-6-yl)-6-((3aR,6aR)-5-methylhexahydropyrrolo[3,4-b]pyrrol-1(2H)-yl)thieno[2,3-b]pyridine-2-carboxamide] | < 100 |
| Cc1cn2cc(NC(=O)c3cc4ccc(N5CCC6CNCC65)nc4s3)nc(C)c2n1 (racemic) [Compound 215, N-(2,8-dimethylimidazo[1,2-a]pyrazin-6-yl)-6-(hexahydropyrrolo[3,4-b]pyrrol-1(2H)-yl)thieno[2,3-b]pyridine-2-carboxamide] | < 100 |
| COc1c(NC(=O)c2cc3ccc(N4CCC5(CCCN5C)C4)nc3s2)cc2cn(C)nc2c1F (racemic) [Compound 231, N-(7-fluoro-6-methoxy-2-methyl-2H-indazol-5-yl)-6-(1-methyl-1,7-diazaspiro[4.4]nonan-7-yl)thieno[2,3-b]pyridine-2-carboxamide] | < 100 |
| COc1cc2nn(C)cc2cc1NC(=O)c1cc2ccc(N[C@@H]3CC(C)(C)NC(C)(C)[C@@H]3F)nc2s1 (racemic) [Compound 260, 6-(((3R,4R)-3-fluoro-2,2,6,6-tetramethylpiperidin-4-yl)amino)-N-(6-methoxy-2-methyl-2H-indazol-5-yl)thieno[2,3-b]pyridine-2-carboxamide] | < 100 |
| COc1cc2nn(C)cc2cc1NC(=O)c1cc2ccc(N[C@H]3CC(C)(C)NC(C)(C)[C@@H]3F)nc2s1 (racemic) [Compound 261, 6-(((3R,4S)-3-fluoro-2,2,6,6-tetramethylpiperidin-4-yl)amino)-N-(6-methoxy-2-methyl-2H-indazol-5-yl)thieno[2,3-b]pyridine-2-carboxamide] | < 100 |
| Cc1cn2cc(NC(=O)c3cc4ccc([C@H]5CCCNC5)nc4s3)cc(F)c2n1 (single isomer, unassigned) [Compound 81] | < 100 |
| Cc1cn2cc(NC(=O)c3cc4ccc([C@@H]5CCCNC5)nc4s3)cc(F)c2n1 (single isomer, unassigned) [Compound 82] | < 100 |
| Cc1cn2cc(NC(=O)c3nc4ccc(N5CCC6(CCN6)C5)nc4s3)cc(F)c2n1 (single isomer, unassigned) [Compound 97] | < 100 |
| Cc1cn2cc(NC(=O)c3nc4ccc(N5CCC(N6CCC6)C5)nc4s3)cc(F)c2n1 (single isomer, unassigned) [Compound 101] | < 100 |
| Cc1cn2cc(NC(=O)c3nc4ccc(N5CCC6(CCN6)C5)nc4s3)cc(F)c2n1 (single isomer, unassigned) [Compound 111] | < 100 |
| COc1c(NC(=O)c2nc3ccc(N4CCC5(CCCN5C)C4)nc3s2)cc2cn(C)nc2c1F (single isomer, unassigned) [Compound 124] | < 100 |
| COc1c(NC(=O)c2nc3ccc(N4CCC5(CCCN5C)C4)nc3s2)cn2cc(C)nc2c1F (single isomer, unassigned) [Compound 127] | < 100 |
| COc1c(NC(=O)c2nc3ccc(N4CCC5(CCCN5C)C4)nc3s2)cn2cc(C)nc2c1F (single isomer, unassigned) [Compound 128] | < 100 |
| COc1cc(NC(=O)c2cc3nc(N4CCC5(CCCN5C)C4)ccc3o2)cn2cc(C)nc12 (single isomer, unassigned) [Compound 174] | < 100 |
| COc1cn2nc(C)cc2cc1NC(=O)c1cc2nc(N3CCC4(CCCN4C)C3)ccc2o1 (single isomer, unassigned) [Compound 175] | < 100 |

| SMILES | IC50 [nM] |
| --- | --- |
| COc1cc2nn(C)cc2cc1NC(=O)c1cc2ccc(C3CCN(C)C3)nc2s1 (single isomer, unassigned) [Compound 177] | < 100 |
| Cc1cn2cc(NC(=O)c3cc4ccc(C5CCN(C)C5)nc4s3)cc(F)c2n1 (single isomer, unassigned) [Compound 181] | < 100 |
| COc1cc2nn(C)cc2cc1NC(=O)c1cc2ccc(C3CCCN(C)C3)nc2s1 (single isomer, unassigned) [Compound 185] | < 100 |
| COc1cc2nn(C)cc2cc1NC(=O)c1cc2ccc(C3CCCN(C)C3)nc2s1 (single isomer, unassigned) [Compound 186] | < 100 |
| Cc1cn2cc(NC(=O)c3cc4ccc(C5CCCN(C)C5)nc4s3)nc(C)c2n1 (single isomer, unassigned) [Compound 187] | 100 to 1000 |
| COc1nc(NC(=O)c2cc3ccc(N4CCC(N(C)C)C4)nc3s2)cn2cc(C)nc12 (single isomer, unassigned) [Compound 198] | < 100 |
| COc1nc(NC(=O)c2cc3ccc(N4CCC(N(C)C)C4)nc3s2)cn2cc(C)nc12 (single isomer, unassigned) [Compound 199] | < 100 |
| COc1cn2nc(C)cc2cc1NC(=O)c1cc2ccc(N3CCC(N(C)C)C3)nc2s1 (single isomer, unassigned) [Compound 205] | < 100 |
| COc1cn2nc(C)cc2cc1NC(=O)c1cc2ccc(N3CCC(N(C)C)C3)nc2s1 (single isomer, unassigned) [Compound 206] | < 100 |
| Cc1cn2cc(NC(=O)c3cc4ccc(N5CCC(NCC6CC6)C5)nc4s3)cc(F)c2n1 (single isomer, unassigned) [Compound 210] | < 100 |
| CCNC1CCN(c2ccc3cc(C(=O)Nc4cc5cc(C)nn5cc4OC)sc3n2)C1 (single isomer, unassigned) [Compound 212] | < 100 |
| CCNC1CCN(c2ccc3cc(C(=O)Nc4cc5cc(C)nn5cc4OC)sc3n2)C1 (single isomer, unassigned) [Compound 213] | < 100 |
| COc1cc2nn(C)cc2cc1NC(=O)c1cc2ccc(N3CC[C@]4(CCCN4C)C3)nc2s1 (single isomer, unassigned) [Compound 222] | < 100 |
| COc1cc2nn(C)cc2cc1NC(=O)c1cc2ccc(N3CC[C@@]4(CCCN4C)C3)nc2s1 (single isomer, unassigned) [Compound 223] | < 100 |
| COc1cn2nc(C)cc2cc1NC(=O)c1cc2ccc(N3CCC4(CCCN4C)C3)nc2s1 (single isomer, unassigned) [Compound 224] | < 100 |
| COc1cn2nc(C)cc2cc1NC(=O)c1cc2ccc(N3CCC4(CCCN4C)C3)nc2s1 (single isomer, unassigned) [Compound 225] | < 100 |
| COc1c(NC(=O)c2cc3ccc(N4CCC5(CCCN5C)C4)nc3s2)cn2cc(C)nc2c1F (single isomer, unassigned) [Compound 239] | < 100 |
| COc1cc2nn(C)cc2cc1NC(=O)c1cc2ccc(N3CC[C@@H](N(C)C)C3)nc2s1 (single isomer, unassigned) [Compound 241] | < 100 |
| COc1c(NC(=O)c2cc3ccc(N4CCC5(CCCN5C)C4)nc3s2)cn2cc(C)nc2c1F (single isomer, unassigned) [Compound 242] | < 100 |
| COc1cc2nn(C)cc2cc1NC(=O)c1cc2ccc(N3CCC(N(C)C)C3)nc2s1 (single isomer, unassigned) [Compound 244] | < 100 |
| COc1cc2nc(C)cn2cc1NC(=O)c1cc2ccc(N3CC[C@]4(CCCN4C)C3)nc2s1 (single isomer, unassigned) [Compound 251] | 100 to 1000 |
| COc1cc2nc(C)cn2cc1NC(=O)c1cc2ccc(N3CC[C@@]4(CCCN4C)C3)nc2s1 (single isomer, unassigned) [Compound 252] | < 100 |
| Cc1cn2cc(NC(=O)c3cc4ccc(N5CC[C@@]6(CCCN6C)C5)nc4s3)nc(C(F)F)c2n1 (single isomer, unassigned) [Compound 254] | < 100 |
